Drawing on US11912679B2, “Aryl alkynamide derivatives” (Astellas Pharma, Inc., priority 2022, dated 2024), this text covers IC50 for 55 compounds.

Counter-ions that a name gives are not always drawn.

This experiment concerns IRF pathway of THP-1. Put plainly: Test on the activity of IRF pathway of THP-1 (THP1-Dual reporter cells stimulated with 2'3'-cGAMP). The experiment is classed as cell-based. Particulars: Homo sapiens, PMA-treated, 2'3'-cGAMP 5 ug/mL, QUANTI-Luc readout, read-out: IC50 of inhibition of the activity of IRF pathway. On the procedure: 0.3 uM of PMA (phorbol myristate acetate, SIGMA, P1585) was added to THP1-Dual™ cells (NF-κB-SEAP IRF-Luc Reporter Monocytes, Invivogen, thpd-nfis), and the cells were cultured at 37° C. for 1 day in RPMI1640 with 10% Fetal Bovine Serum (FBS). A compound with a known concentration was added, and the cells were incubated at room temperature for 1 hour. Mammalian (non-canonical) CDN, cyclic [G(2′,5′)pA(3′,5′)p] (2′3′-cGAMP, Invivogen, tlrl-nacga23) was added to a final concentration of 5 ug/mL, and the cells were cultured at 37° C. On the following day, QUANTI-Luc™ (Secreted luciferase detection medium, Invivogen, rep-qlc) was added to the culture solution and the activity of IRF pathway was measured using a microplate reader. The inhibition ratio at each concentration was determined, where the activity of IRF pathway with no addition of the test compound or 2′3′-cGAMP was defined as 100% inhibition and the activity of IRF pathway with no addition of the test compound and with addition of 2′3′-cGAMP was defined as 0% inhibition. The IC50 value was calculated by sigmoid […] model non-linear regression analysis.
Take `O=C(C#Cc1ccc(-c2ccccc2OC(F)(F)F)c(C(F)(F)F)c1)N1C[C@H](O)[C@@H](O)C1` [Example 70]: the IC50 – broadly, the concentration that inhibits the measured activity by half – worked out at 35 nM. On to `O=C(C#Cc1ccc(-c2ccccc2OC(F)(F)F)c(C(F)(F)F)c1)N1C[C@@H](O)[C@@H](O)C1` [Example 71], for which the IC50 came to 43 nM. In the case of `O=C(C#Cc1ccc(-c2ccccc2OC(F)(F)F)c(C(F)(F)F)c1)N[C@@H]1COC[C@@H]1O` [Example 72] it was 1210 nM; in that of `O=C(C#Cc1ccc(-c2ccccc2OC(F)(F)F)c(C(F)(F)F)c1)N[C@H]1COC[C@H]1O` [Example 73], 99 nM; in that of `O=C(C#Cc1ccc(-c2ccccc2OC(F)(F)F)c(C(F)(F)F)c1)NC[C@@H](O)CO` [Example 74], 48 nM. With `O=C(C#Cc1ccc(-c2ccccc2OC(F)(F)F)c(C(F)(F)F)c1)NC[C@H](O)CO` [Example 75] the figure was 73 nM; with `CN(CCO)C(=O)C#Cc1ccc(-c2ccccc2OC(F)(F)F)c(C(F)(F)F)c1` [Example 76], 76 nM; with `O=C(C#Cc1ccc(-c2ccccc2OC(F)(F)F)c(C(F)(F)F)c1)N1CC(O)C1` [Example 77], 91 nM. With `O=C(C#Cc1ccc(-c2ccccc2OC(F)(F)F)c(C(F)(F)F)c1)N1CC(O)(CO)C1` [Example 78] the figure was 51 nM; with `O=C(C#Cc1ccc(-c2ccc(OC(F)F)cc2)c(C(F)(F)F)c1)N1C[C@@H](O)[C@@H](O)C1` [Example 79], 185 nM.

Turning to `O=C(C#Cc1ccc(-c2ccc(OC(F)F)cc2)c(C(F)(F)F)c1)N[C@H]1COC[C@H]1O` [Example 80], the IC50 turned out to be 539 nM. In the case of `O=C(C#Cc1ccc(-c2cccc(OC(F)F)c2)c(C(F)(F)F)c1)N[C@@H]1COC[C@@H]1O` [Example 81] it was 37 nM; in that of `O=C(C#Cc1ccc(-c2cccc(OC(F)F)c2)c(C(F)(F)F)c1)N[C@H]1COC[C@H]1O` [Example 82], 239 nM. In the case of `O=C(C#Cc1ccc(-c2ccc(OC(F)F)cc2)c(C(F)(F)F)c1)N[C@@H]1COC[C@@H]1O` [Example 83] it was 430 nM; in that of `O=C(C#Cc1ccc(-c2ccc(Cl)cc2)c(C(F)(F)F)c1)N1C[C@@H](O)[C@@H](O)C1` [Example 84], 435 nM; in that of `O=C(C#Cc1cnc(-c2ccc(C(F)(F)F)cc2)c(C(F)(F)F)c1)N1C[C@@H](O)[C@@H](O)C1` [Example 85], 224 nM.

Turning to `O=C(C#Cc1cnn(-c2ccc(F)cc2)c1C(F)(F)F)N1C[C@@H](O)[C@@H](O)C1` [Example 86], the IC50 was 8040 nM. In the case of `O=C(C#Cc1ccc(-c2ccccn2)cc1)N(CCO)c1ccccc1` [Example 87, N-(2-hydroxyethyl)-N-phenyl-3-[4-(pyridin-2-yl)phenyl]prop-2-ynamide] it was 1610 nM; in that of `CN1CCN(C(=O)C#Cc2ccc(-c3ccncc3)cc2)CC1` [Example 88, 1-(4-methylpiperazin-1-yl)-3-[4-(pyridin-4-yl)phenyl]prop-2-yn-1-one], 5550 nM; in that of `O=C(C#Cc1ccc(-c2cccnc2)cc1)N(CCO)c1ccccc1` [Example 89], 1690 nM. For the compound `O=C(C#Cc1ccc(-c2ccccc2)c(C(F)(F)F)c1)Nc1cccc(C(=O)O)c1` [Example 90, 3-({3-[2-(trifluoromethyl)[1,1′-biphenyl]-4-yl]prop-2-ynoyl}amino)benzoic acid], the IC50 stood at 471 nM. For `O=C(O)CCN1CCN(C(=O)C#Cc2ccc(-c3ccccc3)c(C(F)(F)F)c2)CC1` [Example 91, 3-(4-{3-[2-(trifluoromethyl)[1,1′-biphenyl]-4-yl]prop-2-ynoyl}piperazin-1-yl)propanoic acid monohydrochloride], the IC50 came out at 600 nM. In the case of `O=C(O)c1ccc2c(c1)N(C(=O)C#Cc1ccc(-c3ccccc3)c(C(F)(F)F)c1)CC2` [Example 92, 1-{3-[2-(trifluoromethyl)[1,1′-biphenyl]-4-yl]prop-2-ynoyl}-2,3-dihydro-1H-indole-6-carboxylic acid] it was 767 nM; in that of `O=C(O)CCCN1CCN(C(=O)C#Cc2ccc(-c3ccccc3)c(C(F)(F)F)c2)CC1` [Example 93], 919 nM; in that of `O=C(O)C1CCN(C(=O)C#Cc2ccc(-c3ccccc3)c(C(F)(F)F)c2)C1` (stereo not shown) [Example 94], 11800 nM.

As to `CN1CCN(C(=O)C#Cc2cnn(-c3ccc(C(F)(F)F)cc3)c2)CC1` [Example 95, 1-(4-methylpiperazin-1-yl)-3-{1-[4-(trifluoromethyl)phenyl]-1H-pyrazol-4-yl}prop-2-yn-1-one], the IC50 amounted to 1440 nM. For `O=C(C#Cc1ccc(-c2ccccc2)c(CN2CCCCC2)c1)N(C[C@@H](O)CO)c1ccccc1` [Example 96, N-[(2R)-2,3-dihydroxypropyl]-N-phenyl-3-{2-[(piperidin-1-yl)methyl][1,1′-biphenyl]-4-yl}prop-2-ynamide], the IC50 was determined as 80 nM. With `O=C(C#Cc1ccc(-c2ccccc2)c(CN2CCOCC2)c1)NC[C@H](O)CO` [Example 97] the figure was 4610 nM; with `COC1CCN(Cc2cc(C#CC(=O)NC[C@H](O)CO)ccc2-c2ccccc2)CC1` [Example 98], 2570 nM. In the case of `N[C@H]1CCN(C(=O)C#Cc2ccc(-c3ccccc3)c(C(F)(F)F)c2)C1` [Example 100, 1-[(3S)-3-aminopyrrolidin-1-yl]-3-[2-(trifluoromethyl)[1,1′-biphenyl]-4-yl]prop-2-yn-1-one monooxalate] it was 125 nM; in that of `N[C@@H]1CCN(C(=O)C#Cc2ccc(-c3ccccc3)c(C(F)(F)F)c2)C1` [Example 101], 190 nM; in that of `CN1CC2(C1)CN(C(=O)C#Cc1ccc(-c3ccccc3)cc1)C2` [Example 102], 842 nM. In the case of `O=C(C#Cc1ccc(-c2ccccc2)c(C(F)(F)F)c1)N1CC[C@H](O)C1` [Example 103] it was 402 nM; in that of `O=C(C#Cc1ccc(C2CCOCC2)c(C(F)(F)F)c1)N1C[C@@H](O)[C@@H](O)C1` [Example 104], 1790 nM. As to `CC(C)(C)n1cc(-c2ccc(C#CC(=O)N3C[C@@H](O)[C@@H](O)C3)cc2C(F)(F)F)cn1` [Example 105], the IC50 came to 620 nM. In the case of `O=C(C#Cc1ccc(-c2ccccc2)c(C(F)(F)F)c1)N[C@H]1C[C@@H](O)[C@@H](O)C1` [Example 106, N-[(1r,3R,4S)-3,4-dihydroxycyclopentyl]-3-[2-(trifluoromethyl)[1,1′-biphenyl]-4-yl]prop-2-ynamide] it was 358 nM. In the case of `O=C(C#Cc1ccc(-c2ccccc2)c(C(F)(F)F)c1)N[C@@H]1C[C@@H](O)[C@@H](O)C1` [Example 107] it was 489 nM; in that of `O=C(C#Cc1ccc(-c2ccccc2)c(C(F)(F)F)c1)N1CC[C@@H](O)C1` [Example 108], 263 nM; in that of `O=C(C#Cc1ccc(-c2ccccc2C(F)(F)F)c(Cl)c1)N1C[C@@H](O)[C@@H](O)C1` [Example 109], 112 nM.

Take `CN(C)c1cc(C#CC(=O)N2C[C@@H](O)[C@@H](O)C2)ccc1-c1ccccc1C(F)(F)F` [Example 110]: the IC50 stood at 1210 nM. In the case of `COc1cc(C#CC(=O)N2C[C@@H](O)[C@@H](O)C2)ccc1-c1ccccc1C(F)(F)F` [Example 111] it was 1050 nM; in that of `Cc1cc(C#CC(=O)N2C[C@@H](O)[C@@H](O)C2)ccc1-c1ccccc1C(F)(F)F` [Example 112], 887 nM.

Take `O=C(C#Cc1ccc(-c2ccccc2)c(OC(F)F)c1)NC[C@H](O)CO` [Example 113]: the IC50 stood at 698 nM. In the case of `O=C(C#Cc1ccc(-c2ccccc2)c(C(F)(F)F)c1)NCCNS(=O)(=O)CCO` [Example 114] it was 339 nM; in that of `O=C(C#Cc1cn(-c2ccc(F)cc2)c(C(F)(F)F)n1)NC[C@H](O)CO` [Example 115], 4940 nM. With `O=C(C#Cc1cnc(-c2ccccc2C(F)(F)F)cn1)N1C[C@@H](O)[C@@H](O)C1` [Example 116] the figure was 428 nM; with `O=C(C#Cc1ccc(-c2ccccc2C(F)(F)F)c2ncccc12)N1C[C@@H](O)[C@@H](O)C1` [Example 117], 2830 nM; with `O=C(C#Cc1ccc(-c2ccccc2C(F)(F)F)nn1)N1C[C@@H](O)[C@@H](O)C1` [Example 118], 838 nM. In the case of `NC(=O)c1cc(C#CC(=O)N2C[C@@H](O)[C@@H](O)C2)ccc1-c1ccccc1C(F)(F)F` [Example 119, 4-{3-[(3R,4S)-3,4-dihydroxypyrrolidin-1-yl]-3-oxoprop-1-yn-1-yl}-2′-(trifluoromethyl)[1,1′-biphenyl]-2-carboxamide], the IC50 was found to be 5260 nM. In the case of `N#Cc1cc(C#CC(=O)N2C[C@@H](O)[C@@H](O)C2)ccc1-c1ccccc1` [Example 120], the IC50 is 324 nM. On to `O=C(C#Cc1ccc(-c2ccccc2)c(O)c1)N1C[C@@H](O)[C@@H](O)C1` [Example 121], for which the half-inhibitory concentration (IC50) was found to be 7780 nM. Turning to `COc1ncc(-c2ccc(C#CC(=O)N3C[C@@H](O)[C@@H](O)C3)cc2C(F)(F)F)cn1` [Example 122], the IC50 was determined as 3100 nM. Turning to `CN(Cc1cc(C#CC(=O)N2C[C@@H](O)[C@@H](O)C2)ccc1-c1ccccc1C(F)(F)F)C1CC1` [Example 123], the IC50 was 143 nM. In the case of `CS(=O)(=O)NCc1cc(C#CC(=O)N2C[C@@H](O)[C@@H](O)C2)ccc1-c1ccccc1C(F)(F)F` [Example 124] it was 2000 nM. With `CS(=N)(=O)CCNC(=O)C#Cc1ccc(-c2ccccc2)c(C(F)(F)F)c1` (stereo not shown) [Example 125] the figure was 322 nM.
